{
  "source": "paper PMC4513247",
  "about": "(Molecular pharmacology, 2010)",
  "key": {"[1]": {"target": "T1, DAT (Homo sapiens, UniProt Q01959)", "T1 sequence (Q01959 whole entry, species assumed)": "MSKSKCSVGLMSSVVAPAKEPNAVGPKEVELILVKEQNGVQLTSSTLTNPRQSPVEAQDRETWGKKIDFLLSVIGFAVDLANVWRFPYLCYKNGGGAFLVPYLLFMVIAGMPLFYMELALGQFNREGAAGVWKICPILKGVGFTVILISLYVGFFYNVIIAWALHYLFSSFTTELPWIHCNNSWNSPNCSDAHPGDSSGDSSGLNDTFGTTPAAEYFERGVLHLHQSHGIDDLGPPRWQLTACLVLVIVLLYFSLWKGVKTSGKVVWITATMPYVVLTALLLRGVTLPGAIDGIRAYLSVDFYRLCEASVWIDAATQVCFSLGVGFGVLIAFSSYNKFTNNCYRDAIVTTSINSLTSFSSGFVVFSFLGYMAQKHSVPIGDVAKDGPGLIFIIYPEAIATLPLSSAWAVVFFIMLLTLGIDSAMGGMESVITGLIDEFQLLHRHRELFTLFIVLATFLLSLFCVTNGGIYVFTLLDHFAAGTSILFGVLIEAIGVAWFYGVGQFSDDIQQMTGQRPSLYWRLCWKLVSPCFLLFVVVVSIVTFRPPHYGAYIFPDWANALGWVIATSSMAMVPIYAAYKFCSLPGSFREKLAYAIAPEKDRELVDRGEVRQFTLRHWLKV", "type": "binding", "conditions": "~10 nM [3H]WIN35,428, fixed concentrations of carbamazepine"}, "[2]": {"target": "SERT^WT (Homo sapiens, UniProt P31645)", "sequence (P31645 whole entry)": "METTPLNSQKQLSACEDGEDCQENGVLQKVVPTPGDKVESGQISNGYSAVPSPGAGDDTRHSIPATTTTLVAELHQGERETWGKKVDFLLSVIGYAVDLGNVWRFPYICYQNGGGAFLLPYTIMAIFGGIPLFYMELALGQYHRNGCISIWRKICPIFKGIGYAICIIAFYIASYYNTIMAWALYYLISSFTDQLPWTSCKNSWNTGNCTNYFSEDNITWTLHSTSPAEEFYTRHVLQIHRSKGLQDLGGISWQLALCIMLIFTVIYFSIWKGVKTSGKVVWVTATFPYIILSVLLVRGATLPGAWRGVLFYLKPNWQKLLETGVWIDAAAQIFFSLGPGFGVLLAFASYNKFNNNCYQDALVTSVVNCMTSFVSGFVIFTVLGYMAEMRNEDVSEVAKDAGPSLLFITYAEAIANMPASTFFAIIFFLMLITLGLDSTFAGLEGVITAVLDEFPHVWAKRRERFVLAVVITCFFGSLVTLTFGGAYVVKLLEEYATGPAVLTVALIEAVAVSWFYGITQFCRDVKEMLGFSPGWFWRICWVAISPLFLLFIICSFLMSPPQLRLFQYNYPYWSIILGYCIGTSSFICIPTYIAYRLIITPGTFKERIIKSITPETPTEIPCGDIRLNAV", "type": "binding"}, "[3]": {"test_system": "NCCc1c[nH]c2ccc(O)cc12", "assay": "cells, lysate or membranes", "conditions": "other: SERT^WT; [3H]5-HT saturation uptake, HEK293 cells"}, "[4]": {"test_system": "NET", "conditions": "NET versus SERT; no reference given; cited from earlier work"}, "[5]": {"target": "T1, DAT", "conditions": "DAT versus SERT; no reference given; cited from earlier work"}, "[6]": {"conditions": "SERT, ~2 nM [3H]imipramine, fixed concentrations of carbamazepine"}},
  "note": "Like-named read-outs stand apart in the source and are kept apart here.",
  "data": [
    {"compound": "ibogaine", "values": [
      {"measurement": "binding together with carbamazepine (Dixon plot of [3H]WIN35,428 binding)", "setting": "[1]", "value": "intersected"},
      {"measurement": "binding together with carbamazepine (Dixon plot of [3H]imipramine binding)", "setting": "[2]; [6]", "value": "intersected"}
    ]},
    {"compound": "SERT^WT (Homo sapiens)", "values": [
      {"measurement": "Km", "setting": "[3]", "value": "1.2 ± 0.8", "unit": "µM"}
    ]},
    {"compound": "CN(C)CCCN1c2ccccc2CCc2ccccc21", "note": "[imipramine]", "values": [
      {"measurement": "affinity lower than for SERT", "setting": "[4]", "value": "approximately 10 fold"},
      {"measurement": "affinity lower than for SERT", "setting": "[5]", "value": "~1000", "unit": "fold"}
    ]},
    {"compound": "CN[C@@H](C)Cc1ccc2c(c1)OCO2", "note": "[MDMA, s-(+)-3,4-methylenedioxy-methamphetamine]", "values": [
      {"measurement": "binding together with carbamazepine (Dixon plot of [3H]imipramine binding)", "setting": "[2]", "value": "mutually exclusive"}
    ]},
    {"compound": "CC(N)Cc1ccc(Cl)cc1", "note": "(stereo not shown) [para-chloroamphetamine]", "values": [
      {"measurement": "binding together with carbamazepine (Dixon plot of [3H]imipramine binding)", "setting": "[2]; [6]", "value": "mutually exclusive"}
    ]}
  ]
}
